# Patent US11142550B2, “Split inteins with exceptional splicing activity” (THE TRUSTEES OF PRINCETON UNIVERSITY, priority 2016, dated 2021)
# Entries after “also recorded” stand apart in the source; their conditions may differ.
# What was measured:
# [1] = tested on: split intein constructs with short native extein sequences; experiment: in vitro protein trans-splicing (PTS) assay, RP-HPLC / ESI-MS kinetics; format: biochemical
# Text: Thus, attention was focused on ‘second shell’ residues, those directly adjacent to the active site. To simplify this analysis, a batch mutagenesis strategy was employed in conjunction with a previously reported in vitro PTS assay.^5 This assay uses split intein constructs with short native extein sequences and allows the rates of branched intermediate formation (k1,k2) and its resolution to final splice products (k3) to be determined using a three state kinetic model.
# Splicing reactions were carried out as adapted from a previously described protocol. Briefly, N- and C-inteins (15 μM Int^N, 10 μM Int^C) were individually preincubated in splicing buffer (100 mM sodium phosphates, 150 mM NaCl, 1 mM EDTA, pH 7.2) with 2 mM TCEP for 15 minutes. All splicing reactions were carried out at 30° C. unless otherwise indicated. Splicing reactions comparing the tolerance of Npu and Cfa to chaotropic agents were carried out with the indicated concentration of either Urea or guanidine hydrochloride. Splicing was initiated by mixing equal volumes of N- and C-inteins with aliquots removed at the indicated times and quenched by the addition of 8M guanidine hydrochloride, 4% TFA (3:1 v/v). For all splicing reactions containing either Npu^C-CFN or Cfa^C-CFN, reaction progress was monitored by RP-HPLC. […] (15 minute preincubation) were both observed to be inefficient, reaching ˜50% completion. This is likely due to aggregation (and inactivation) of the N-intein. Note, shorter preincubations of Cfa at 80° C. led to more efficient splicing.
# Kinetic analysis was carried out as previously described.^1 Briefly, five species (1-5) are separated by RP-HPLC, and peak areas are determined. For ESI-MS, peak areas are calculated for species 1-4. Each individual peak was normalized against the total area of all peaks combined and reaction progress curves were plotted (n=3). The data were then fit in ProFit to the analytical solution to the coupled differential rate equation for the three state kinetic splicing model. Because the starting material cannot be separated from the linear thioester using this assay, the three state kinetic model collapses the binding step and the first two steps of the splicing reaction into one equilibrium. Each splicing reaction was carried out in triplicate with each replicate analyzed separately. The mean and standard deviation for all values (n=3) are reported.
# All splicing reactions comparing Npu and Cfa were separated by RP-HPLC with peak areas once again calculated using the manufacturer's software. For these reactions, peak areas for the starting material and branched intermediate (species 1 and 2) and product (species 3, 4, 5) were calculated. The data was then fit to the first order rate equation using the GraphPad Prism software. [P](t)=[P]max·(1−e^−kt)
# Where [P] is the normalized intensity of product, [P]max is this value at t=∞ (the reaction plateau), and k is the rate constant (s^−1). The mean and standard deviation (n=3) are reported.
# [2] = tested on: split intein constructs with short native extein sequences; settings: 30° C.; cited from earlier work
# [3] = refolding of N-inteins by stepwise dialysis; format: physicochemical; settings: stepwise dialysis into lysis buffer, 4° C.
# Method: The N-inteins were refolded by stepwise dialysis into lysis buffer with 0.5 mM DTT at 4° C. This refolded protein was then treated with 10 mM TCEP and Ulp1 protease (overnight, RT) to cleave the His6-SUMO expression tag. The solution was then mixed with 4 mL Ni-NTA resin and incubated for 30 minutes at 4° C. The slurry was applied to a fritted column and the flow through was collected together with a 3 CV wash with lysis buffer. The protein was then treated with 10 mM TCEP, concentrated to 10 mL, and further purified by size exclusion chromatography using an S75 16/60 gel filtration column employing degassed splicing buffer (100 mM sodium phosphate, 150 mM NaCl, 1 mM EDTA, pH 7.2) as the mobile phase. Fractions were analyzed by SDS-PAGE, analytical RP-HPLC, and ESI-MS. Pure protein was stored by flash-freezing in liquid N2 following the addition of glycerol (20% v/v).
# [4] = tested on: Cfa^C-CFN; experiment: protein trans-splicing of extracted inclusion body under denaturing conditions; format: biochemical; settings: extracted from inclusion bodies with 6M urea
# Method: E. coli inclusion bodies containing His6-Sumo-Cfa^N expression (plasmid 20) were resuspended and extracted overnight at 4° C. in lysis buffer containing 6M urea. Following centrifugation (35,000 rcf, 30 min), the supernatant was removed and the protein enriched by Ni-NTA under denaturing conditions (as described above). However, instead of refolding the protein, trans-splicing was directly initiated by the addition of Cfa^C-CFN (10 μM Cfa^C, 2 mM TCEP, 2 mM EDTA, 2 hrs, RT). Reaction progress was monitored by SDS-PAGE.
# [5] = tested on: split aminoglycoside phosphotransferase (KanR) in E. coli; experiment: protein splicing coupled kanamycin resistance (Kan^R) assay; format: cell-based; settings: +2 position of the C-extein
# Method: The protein splicing coupled kanamycin resistance (Kan^R) assay was carried out as previously described.^2,9 Briefly, a plasmid coding for a fragmented aminoglycoside phosphotransferase fused to a split intein (Cfa) with either F, G, R, or E present at the +2 position of the C-extein (plasmids 22-25) was transformed into DH5α competent cells and grown in starter cultures overnight (LB Broth, 100 μg/mL ampicillin, 18 hrs). These cultures were then diluted twenty-fold into a 96 well plate, and E. coli growth was measured at various concentrations of kanamycin (2.5, 10, 25, 50, 100, 250, 1000 μg/mL kanamycin with 100 μg/mL ampicillin). The cell optical density at 650 nm (OD650) at the 24-hour end point was fit to a dose response curve with variable slope.
# Where ODmin was fixed to background absorbance at 650 nm. Each assay was carried out in triplicate, fit separately, and IC50 values are reported as the mean and standard deviation of IC50 for these three separate measurements.
# The kanamycin resistance protein, KanR, is split and fused to N- and C-intein fragments (Cfa^N and Cfa^C). The +2 C-extein residue (red X) is varied in the system. In Panel B, IC50 values for kanamycin resistance of the CfaEKD (WT) and CfaGEP (GEP) inteins with indicated +2 C-extein residue are shown (error=standard error (n=3)).
substance,measurement,setting,value
Npu: DnaE split intein from Nostoc punctiforme PCC73102; SEQ ID NO: 5 and 6 [reference compound],splicing in urea,[1]; 8M urea,inactive
same,splicing activity at 80° C.,[1]; 80° C.,inactive
same,splicing in urea,[1]; above 4M urea,falls off dramatically
same,splicing activity in GuHCl,[1]; ≥3M GuHCl (3M in FIG. 2 legend),no activity was observed; also recorded: inactive
same,"rate of protein trans-splicing (PTS), t1/2",[2],50 s
"A136S: A136S point mutant on the Ssp^C intein; plasmid 19, SEQ ID NO: 379 [Compound A136S]",effect of mutation on branch formation,[1]; mutation on Ssp^C,no impact
same,effect of mutation on rate of branch resolution,[1]; mutation on Ssp^C,two fold
"Batch 3: Ssp^N batch mutant (S23E, E24K, E25R, N27E); plasmid 13, SEQ ID NO: 373",splicing completion,[1]; 30° C.,~50%
same,precipitation during the refolding step,[3],significant protein precipitation was observed
"Cfa^N fusion: model fusion protein His6-SUMO-AEY-Cfa^N; plasmid 20, SEQ ID NO: 381",modification by PTS without refolding,[4],"efficiently, modified by PTS"
"Cfa: consensus fast DnaE split intein; Cfa^N SEQ ID NO: 2, Cfa^C SEQ ID NO: 3",splicing rate constant k (residual activity),[1]; 4M GuHCl,7e-05 s⁻¹
same,splicing in urea,[1]; 8M urea,largely unaffected
same,"branch formation rate, increase over Npu","[1]; 30° C., relative to Npu",3 fold
same,"branch resolution rate, increase over Npu","[1]; 30° C., relative to Npu",2 fold
same,splices faster than Npu,"[1]; 30° C., relative to Npu",2.5 fold
same,splicing activity at 80° C.,[1]; 80° C.,"maintains activity at 80° C., albeit with reduced yield of splice products"
same,splicing completion,"[1]; 80° C., 15 minute preincubation",~50%
same,GuHCl concentration up to which the intein splices,[1]; guanidine hydrochloride added,up to 4 M
same,splicing activity in GuHCl,[1]; up to 3M GuHCl,little decrease in activity
same,C-extein +2 residue preference,[5],retains the preference for a bulky hydrophobic residue
